Assay [1] deals with T1, GHS-R1a (Homo sapiens, UniProt Q92847).
T1 construct: expressed in transfected cells; host or cells: HEK293
The experiment in a line: Radioligand binding assay, displacement of [125I-His9]ghrelin(1-28). The following applies: for IC50: GHS-R1a transfected HEK293 cells, [125I-His9]ghrelin(1-28) radioligand, determined in applicant's lab; for binding affinity with GHS-R1a, stated in words: radioligand binding assay. The procedure: The affinity for GHS-R1a was determined using a radioligand binding assay. […] The resulting suspension was incubated for 20 min with shaking (550 rpm). […] All binding assays were performed in triplicate.

The target in assay [2] is T1, GHS-R1a. The following applies: cited from earlier work; for Ki: literature value, read-out: Ki values reported in the literature.

Structures are written as SMILES. “And” between values parts separate entries of the source, which are not always exact repeats. Equal entries are not always repeated. Where two headings read alike, the source gives them in different places. Some results are limits rather than exact numbers.

T1 sequence (Q92847 whole entry): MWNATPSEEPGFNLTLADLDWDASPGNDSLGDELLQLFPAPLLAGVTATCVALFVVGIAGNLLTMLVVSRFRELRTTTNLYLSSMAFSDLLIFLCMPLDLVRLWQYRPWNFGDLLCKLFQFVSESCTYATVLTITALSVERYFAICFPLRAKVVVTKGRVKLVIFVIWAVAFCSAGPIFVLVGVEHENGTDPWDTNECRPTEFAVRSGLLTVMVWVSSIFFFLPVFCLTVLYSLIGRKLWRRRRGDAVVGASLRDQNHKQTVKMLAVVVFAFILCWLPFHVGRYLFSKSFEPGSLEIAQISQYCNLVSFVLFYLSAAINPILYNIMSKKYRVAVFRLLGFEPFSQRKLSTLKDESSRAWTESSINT

`CC(C)N1CCC[C@H](Cn2c(-c3ccc(OCCF)cc3F)nc3ccc(Oc4ccc(F)cc4)cc3c2=O)C1` [Compound 17b, (S)-2-(2-fluoro-4-(2-fluoroethoxy)phenyl)-6-(4-fluorophenoxy)-3-((1-isopropylpiperidin-3-yl)methyl)quinazolin-4(3H)-one]: at GHS-R1a [1], the IC50 – broadly, the midpoint of a concentration-inhibition curve – was found to be 0.33 nM and the “binding affinity with GHS-R1a, stated in words” value (from here on “binding affinity with GHS-R1a”) is on record as “sub-nanomolar binding affinity”.
Take `CC(C)N1CCC[C@H](Cn2c(-c3ccccc3F)nc3ccc(Oc4ccc5ncsc5c4)cc3c2=O)C1` [Compound 10b, (S)-6-(benzo[d]thiazol-6-yloxy)-2-(2-fluorophenyl)-3-((1-isopropylpiperidin-3-yl)methyl)quinazolin-4(3H)-one]: at GHS-R1a [1], the IC50 came out at 0.02 nM and the “binding affinity with GHS-R1a” value is given as “sub-nanomolar binding affinity”.
`CC(C)N1CCC[C@H](Cn2c(-c3ccc(OCCO)cc3F)nc3ccc(Oc4ccc(F)cn4)cc3c2=O)C1` [Compound 15a, (S)-2-(2-fluoro-4-(2-hydroxyethoxy)phenyl)-6-((5-fluoropyridin-2-yl)oxy)-3-((1-isopropylpiperidin-3-yl)methyl)quinazolin-4(3H)-one] had an IC50 on GHS-R1a [1] of 40.1 nM.
In the case of `Cc1ccccc1-c1nc2ccc(Oc3ccc(F)cc3)cc2c(=O)n1C[C@H]1CCCN(C(C)C)C1` [Compound 5f, (S)-6-(4-fluorophenoxy)-3-((1-isopropylpiperidin-3-yl)methyl)-2-(o-tolyl)quinazolin-4(3H)-one, reference compound], on GHS-R1a [1], the IC50 is 3.7 nM and the “binding affinity with GHS-R1a” value is given as “equivalent binding affinity with natural ghrelin”. The IC50 on GHS-R1a [2] (literature value (Bayer work), read-out: IC50 reported for prior art compound) was 0.9 nM. Besides, the Ki – broadly, a measure of affinity in units of concentration, obtained from inhibition or displacement – on GHS-R1a [2] was 0.9 nM.
`Cc1ccccc1-c1nc2ccc(Oc3ccc(F)cc3)cc2c(=O)n1C[C@H]1CCCN(CCF)C1` [Compound 5a, (S)-3-((1-(2-fluoroethyl)piperidin-3-yl)methyl)-6-(4-fluorophenoxy)-2-(o-tolyl)quinazolin-4(3H)-one]: at GHS-R1a [1], the IC50 amounted to 29.5 nM.
`CC(=O)N1CCN(c2ccc(Oc3ccc4nc(-c5ccccc5C)n(C[C@H]5CCCNC5)c(=O)c4c3)cc2)CC1` [Compound 4f, (S)-6-(4-(4-acetylpiperazin-1-yl)phenoxy)-3-(piperidin-3-ylmethyl)-2-(o-tolyl)quinazolin-4(3H)-one]: the IC50 at GHS-R1a [1] was determined as 587 nM.
On GHS-R1a [1], `Cc1ccccc1-c1nc2ccc(Oc3ccc4ncsc4c3)cc2c(=O)n1C[C@H]1CCCN(CCF)C1` [Compound 5e, (S)-6-(benzo[d]thiazol-6-yloxy)-3-((1-(2-fluoroethyl)piperidin-3-yl)methyl)-2-(o-tolyl)quinazolin-4(3H)-one] yielded an IC50 of 9.3 nM.
The same measure, in the same setting: the value for `O=c1c2cc(Oc3ccc(F)cn3)ccc2nc(-c2ccc(OCCO)cc2F)n1C[C@H]1CCCNC1` [Compound 14a, (S)-2-(2-fluoro-4-(2-hydroxyethoxy)phenyl)-6-((5-fluoropyridin-2-yl)oxy)-3-(piperidin-3-ylmethyl)quinazolin-4(3H)-one] was 353 nM.
For `Cc1ccccc1-c1nc2ccc(C(=O)c3ccc(F)cc3)cc2c(=O)n1C[C@H]1CCCN(C(C)C)C1` [Compound 20, (S)-6-(4-fluorobenzoyl)-3-((1-isopropylpiperidin-3-yl)methyl)-2-(o-tolyl)quinazolin-4(3H)-one], on GHS-R1a [1], the IC50 turned out to be 3.8 nM and the “binding affinity with GHS-R1a” value is given as “equivalent binding affinity to natural ghrelin”.
In the same order, the values of `Cc1ccccc1-c1nc2ccc(Oc3ccc4ncsc4c3)cc2c(=O)n1C[C@H]1CCCN(CCO)C1` [Compound 5i, (S)-6-(benzo[d]thiazol-6-yloxy)-3-((1-(2-hydroxyethyl)piperidin-3-yl)methyl)-2-(o-tolyl)quinazolin-4(3H)-one] are 0.4 nM and “sub-nanomolar binding affinity”.
Take `Cc1ccccc1-c1nc2ccc(C(=O)c3ccc(F)cc3)cc2c(=O)n1C[C@H]1CCCNC1` [Compound 19, (S)-6-(4-fluorobenzoyl)-3-(piperidin-3-ylmethyl)-2-(o-tolyl)quinazolin-4(3H)-one]: the IC50 on GHS-R1a [1] is 4 nM.
`O=c1c2cc(Oc3ccc(F)cc3)ccc2nc(-c2ccc(OCCO)cc2F)n1C[C@H]1CCCNC1` [Compound 14b, (S)-2-(2-fluoro-4-(2-hydroxyethoxy)phenyl)-6-(4-fluorophenoxy)-3-(piperidin-3-ylmethyl)quinazolin-4(3H)-one]: on GHS-R1a [1], the IC50 came to 19.8 nM.
The same measure, in the same setting: the value for `O=c1c2cc(Oc3ccc(F)cn3)ccc2nc(-c2ccccc2F)n1C[C@H]1CCCNC1` [Compound 9a, (S)-2-(2-fluorophenyl)-6-((5-fluoropyridin-2-yl)oxy)-3-(piperidin-3-ylmethyl)quinazolin-4(3H)-one] was 935 nM; that for `Cc1ccccc1-c1nc2ccc(Oc3ccc(F)cn3)cc2c(=O)n1C[C@H]1CCCN(C(=O)C(C)F)C1` (stereo partly drawn) [Compound 5j, 3-(((3S)-1-(2-fluoropropanoyl)piperidin-3-yl)methyl)-6-((5-fluoropyridin-2-yl)oxy)-2-(o-tolyl)quinazolin-4(3H)-one] was over 1000 nM.
Still for that read-out and setting: in the case of `Cc1ccccc1-c1nc2ccc(Oc3ccc(F)cn3)cc2c(=O)n1C[C@H]1CCCNC1` [Compound 4b, (S)-6-((5-fluoropyridin-2-yl)oxy)-3-(piperidin-3-ylmethyl)-2-(o-tolyl)quinazolin-4(3H)-one] it was 52 nM; in that of `Cc1ccccc1-c1nc2ccc(Oc3ccc(F)nc3)cc2c(=O)n1C[C@H]1CCCN(CCF)C1` [Compound 5c, (S)-3-((1-(2-fluoroethyl)piperidin-3-yl)methyl)-6-((6-fluoropyridin-3-yl)oxy)-2-(o-tolyl)quinazolin-4(3H)-one], 64.2 nM and 62.4 nM.
Still for that read-out and setting: the value for `Cc1ccccc1-c1nc2ccc(Oc3ccc(Oc4ccc(F)cn4)nc3)cc2c(=O)n1C[C@H]1CCCN(CCO)C1` [Compound 5d, (S)-6-((6-((5-fluoropyridin-2-yl)oxy)pyridin-3-yl)oxy)-3-((1-(2-hydroxyethyl)piperidin-3-yl)methyl)-2-(o-tolyl)quinazolin-4(3H)-one] was 65.2 nM.
`Cc1ccccc1-c1nc2ccc(Oc3ccc(F)nc3)cc2c(=O)n1C[C@H]1CCCNC1` [Compound 4c, (S)-6-((6-fluoropyridin-3-yl)oxy)-3-(piperidin-3-ylmethyl)-2-(o-tolyl)quinazolin-4(3H)-one] showed an IC50 at GHS-R1a [1] of 68.5 nM.
At GHS-R1a [1], `Cc1ccccc1-c1nc2ccc(Oc3ccc(Oc4ccc(F)cn4)nc3)cc2c(=O)n1C[C@H]1CCCNC1` [Compound 4d, (S)-6-((6-((5-fluoropyridin-2-yl)oxy)pyridin-3-yl)oxy)-3-(piperidin-3-ylmethyl)-2-(o-tolyl)quinazolin-4(3H)-one] registered an IC50 of 82.9 nM.
Take `CC(C)N1CCC[C@H](Cn2c(-c3ccc(OCCO)cc3F)nc3ccc(Oc4ccc(F)cc4)cc3c2=O)C1` [Compound 15b, (S)-2-(2-fluoro-4-(2-hydroxyethoxy)phenyl)-6-(4-fluorophenoxy)-3-((1-isopropylpiperidin-3-yl)methyl)quinazolin-4(3H)-one]: on GHS-R1a [1], the IC50 amounted to 2.3 nM and the “binding affinity with GHS-R1a” value is on record as “equivalent binding affinity to natural ghrelin”.
Compound `CC(C)N1CCC[C@H](Cn2c(-c3ccccc3F)nc3ccc(Oc4ccc(F)cn4)cc3c2=O)C1` [Compound 10a, (S)-2-(2-fluorophenyl)-6-((5-fluoropyridin-2-yl)oxy)-3-((1-isopropylpiperidin-3-yl)methyl)quinazolin-4(3H)-one] came in with an IC50 on GHS-R1a [1] of 70.5 nM.
The same measure, in the same setting: in the case of `O=c1c2cc(Oc3ccc4ncsc4c3)ccc2nc(-c2ccccc2F)n1C[C@H]1CCCNC1` [Compound 9b, (S)-6-(benzo[d]thiazol-6-yloxy)-2-(2-fluorophenyl)-3-(piperidin-3-ylmethyl)quinazolin-4(3H)-one] it was 16 nM; in that of `Cc1ccccc1-c1nc2ccc(Oc3ccc4ncsc4c3)cc2c(=O)n1C[C@H]1CCCNC1` [Compound 4e, (S)-6-(benzo[d]thiazol-6-yloxy)-3-(piperidin-3-ylmethyl)-2-(o-tolyl)quinazolin-4(3H)-one], 5.3 nM.
On GHS-R1a [1], `Cc1ccccc1-c1nc2ccc(Oc3ccc(F)cc3)cc2c(=O)n1C[C@H]1CCCNC1` [Compound 4a, (S)-6-(4-fluorophenoxy)-3-(piperidin-3-ylmethyl)-2-(o-tolyl)quinazolin-4(3H)-one, reference compound] came in with an IC50 of 5.6 nM. In addition, at GHS-R1a [2], the Ki was 0.9 nM.
`Cc1ccccc1-c1nc2ccc(Oc3ccc(F)cn3)cc2c(=O)n1C[C@H]1CCCN(CCF)C1` [Compound 5b, (S)-3-((1-(2-fluoroethyl)piperidin-3-yl)methyl)-6-((5-fluoropyridin-2-yl)oxy)-2-(o-tolyl)quinazolin-4(3H)-one] showed an IC50 at GHS-R1a [1] of 20.6 nM.
Same read-out and setting: in the case of `CC(C)N1CCC[C@H](Cn2c(-c3ccc(OCCF)cc3F)nc3ccc(Oc4ccc(F)cn4)cc3c2=O)C1` [Compound 17a, (S)-2-(2-fluoro-4-(2-fluoroethoxy)phenyl)-6-((5-fluoropyridin-2-yl)oxy)-3-((1-isopropylpiperidin-3-yl)methyl)quinazolin-4(3H)-one] it was 17.6 nM.
Same read-out and setting: the value for `O=c1c2cc(Oc3ccc4ncsc4c3)ccc2nc(-c2ccccc2F)n1C[C@H]1CCCN(CCF)C1` [Compound 10c, (S)-6-(benzo[d]thiazol-6-yloxy)-3-((1-(2-fluoroethyl)piperidin-3-yl)methyl)-2-(2-fluorophenyl)quinazolin-4(3H)-one] was 8.1 nM.
Take `Cc1ccccc1-c1nc2ccc(Oc3ccc4ncsc4c3)cc2c(=O)n1C[C@H]1CCCN(C(C)C)C1` [Compound 5g, (S)-6-(benzo[d]thiazol-6-yloxy)-3-((1-isopropylpiperidin-3-yl)methyl)-2-(o-tolyl)quinazolin-4(3H)-one]: on GHS-R1a [1], the IC50 was found to be 1.8 nM and the “binding affinity with GHS-R1a” value is “equivalent binding affinity to natural ghrelin”.
